The target in assay [1] is T1, Growth hormone secretagogue receptor type 1 (Homo sapiens, UniProt Q92847). The assay can be described thus: Agonist activity at GHSR. It is filed as functional.
For assay [2], the target named is T1, Growth hormone secretagogue receptor type 1. Put plainly: Agonist activity at GHSR relative to full agonist. It is filed as functional.
Assay [3] shares this target. Put plainly: Binding affinity to GHSR.

A value given as a limit tells only on which side of the number the result lay.

T1 sequence (Q92847 whole entry): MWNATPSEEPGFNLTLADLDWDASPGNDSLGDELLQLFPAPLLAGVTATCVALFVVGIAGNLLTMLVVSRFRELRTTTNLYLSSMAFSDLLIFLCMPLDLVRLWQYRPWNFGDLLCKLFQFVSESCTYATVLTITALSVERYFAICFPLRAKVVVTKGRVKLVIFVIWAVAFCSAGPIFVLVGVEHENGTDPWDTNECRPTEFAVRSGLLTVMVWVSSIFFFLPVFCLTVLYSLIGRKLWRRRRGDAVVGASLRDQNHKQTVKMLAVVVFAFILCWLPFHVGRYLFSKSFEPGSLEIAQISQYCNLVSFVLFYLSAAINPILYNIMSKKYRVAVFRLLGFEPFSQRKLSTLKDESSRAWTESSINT

The term EC50 denotes the concentration giving half of the maximal effect. Low readings indicate a more potent agent, high ones a less potent agent. Regarding `CC(Oc1ccccc1Cl)C(=O)N(Cc1ccccc1)C[C@H]1CCCN1` (stereo partly specified), the 50% effective concentration (EC50) in assay [1] was 20 nM. In assay [2], the Activity stood at 60%. For the compound `O=C(COc1ccccc1)N(Cc1ccccc1)C[C@H]1CCCN1`, the EC50 in assay [1] was greater than 10000 nM.

On to `CCC(Oc1ccccc1)C(=O)N(C[C@H]1CCCN1)c1ccc(NC(C)=O)cc1` (stereo partly specified), for which the half-maximal effective concentration (EC50) in assay [1] is 4000 nM.

Turning to `CC(Oc1ccccc1)C(=O)N(C[C@H]1CCCN1)c1ccccc1` (stereo partly specified), it took 440 nM to reach a half-maximal effect in assay [1] (EC50). In turn, `CC(Oc1ccccc1)C(=O)N(C[C@H]1CCCN1)c1ccc(Cl)cc1` (stereo partly specified) returned an EC50 in assay [1] of 600 nM. The Activity in assay [2] is 80%.

Consider `CC(Oc1ccccc1Cl)C(=O)N(Cc1cccc(Cl)c1)C[C@H]1CCCN1` (stereo partly specified), for which a half-maximal effect in assay [1] (EC50) was put at 10 nM. This compound also had an Activity in assay [2] of 90%. Broadly, the Ki is the dissociation constant of the complex between target and ligand, obtained from inhibition or displacement. Read a high Ki as weaker binding. On to `CC(Oc1cccc(Cl)c1)C(=O)N(Cc1ccccc1)C[C@H]1CCCN1` (stereo partly specified), for which a half-maximal effect in assay [1] (EC50) was put at 7 nM. The same compound had an Activity in assay [2] of 80%. Further, in assay [3], the affinity corresponds to a Ki of 300 nM.

Turning to `CSc1cccc(N(C[C@H]2CCCN2)C(=O)C(C)Oc2ccccc2)c1` (stereo partly specified), the EC50 in assay [1] worked out at 2000 nM. In assay [1], `CC(Oc1ccccc1Cl)C(=O)N(C[C@H]1CCCN1)c1ccccc1` (stereo partly specified) displayed an EC50 of no less than 10000 nM.

Consider `CC(Oc1ccccc1Cl)C(=O)N(C[C@H]1CCCN1)c1ccccc1Cl` (stereo partly specified), for which the EC50 in assay [1] is no less than 10000 nM.

Consider `CCC(Oc1ccccc1)C(=O)N(C[C@H]1CCCN1)c1ccc(CC#N)cc1` (stereo partly specified), for which the EC50 in assay [1] was 14000 nM. As for `CC(Oc1cccc(Cl)c1)C(=O)N(C[C@H]1CCCN1)c1ccccc1` (stereo partly specified), in assay [1], a half-maximal response (EC50) required 120 nM. This compound came in with an Activity in assay [2] of 60%. Turning to `COc1cccc(N(C[C@H]2CCCN2)C(=O)C(C)Oc2ccccc2)c1` (stereo partly specified), in assay [1], the 50% effective concentration (EC50) was 4000 nM. In assay [1], `CC(=O)Nc1cccc(N(C[C@H]2CCCN2)C(=O)C(C)Oc2ccccc2)c1` (stereo partly specified) yielded an EC50 of 1000 nM. The compound also had an Activity in assay [2] of 80%.

On to `CC(Oc1ccccc1Cl)C(=O)N(C[C@H]1CCCN1)c1cccc(Cl)c1` (stereo partly specified), for which the midpoint of the response in assay [1], the EC50, lay at 250 nM. Also, the Activity in assay [2] was 60%. Take `CCC(Oc1ccccc1)C(=O)N(Cc1ccccc1)C[C@H]1CCCN1` (stereo partly specified): the EC50 in assay [1] is 900 nM. Turning to `CC(Oc1ccccc1)C(=O)N(Cc1ccc(Cl)cc1)C[C@H]1CCCN1` (stereo partly specified), a half-maximal effect in assay [1] (EC50) was put at 220 nM. For the same compound, in assay [2], the Activity came out at 80%.

In the case of `COc1cccc(N(C[C@H]2CCCN2)C(=O)COc2ccccc2)c1`, the EC50 in assay [1] is greater than 10000 nM. Take `Cc1ccccc1CN(C[C@H]1CCCN1)C(=O)C(C)Oc1ccccc1Cl` (stereo partly specified): in assay [1], the EC50 came out at 140 nM. In addition, in assay [2], the Activity was 90%. With `CC(=O)Nc1ccc(N(C[C@H]2CCCN2)C(=O)C(C)Oc2cccc(Cl)c2)cc1` (stereo partly specified), the concentration giving a half-maximal response (EC50) in assay [1] stood at 30 nM. The compound also gave an Activity in assay [2] of 90%. Also, the affinity in assay [3] corresponds to a Ki of 260 nM. In assay [1], `CC(Oc1ccccc1Cl)C(=O)N(C[C@H]1CCCN1)c1ccc(Cl)cc1` (stereo partly specified) showed a 50% effective concentration (EC50) of no less than 10000 nM. Consider `Cc1ccccc1CN(C[C@H]1CCCN1)C(=O)C(C)Oc1ccccc1` (stereo partly specified), for which the concentration giving a half-maximal response (EC50) in assay [1] worked out at 40 nM. Further, in assay [2], the Activity worked out at 110%. The matching figures for `CC(Oc1cccc(Cl)c1)C(=O)N(Cc1ccc(Cl)cc1)C[C@H]1CCCN1` (stereo partly specified): 30 nM and 90%. On to `Cc1cccc(CN(C[C@H]2CCCN2)C(=O)C(C)Oc2ccccc2)c1` (stereo partly specified), for which the EC50 in assay [1] amounted to 80 nM. The same compound displayed an Activity in assay [2] of 90%. For the compound `CC(Oc1ccccc1)C(=O)N(Cc1ccccc1)C[C@H]1CCCN1` (stereo partly specified), the 50% effective concentration (EC50) in assay [1] was determined as 90 nM. Same read-out and setting: in the case of `O=C(COc1ccccc1)N(C[C@H]1CCCN1)c1ccccc1` it was greater than 10000 nM. For `CC(Oc1cccc(Cl)c1)C(=O)N(C[C@H]1CCCN1)c1ccc(Cl)cc1` (stereo partly specified), the EC50 in assay [1] came to 120 nM. The same compound had an Activity in assay [2] of 90%. For `CC(Oc1ccccc1)C(=O)N(C[C@H]1CCCN1)c1ccc(CC#N)cc1` (stereo partly specified), the EC50 in assay [1] was determined as 9000 nM. Still for that read-out and setting: to `CCC(Oc1ccccc1)C(=O)N(C[C@H]1CCCN1)c1cccc(-c2ccccc2)c1OC` (stereo partly specified) belongs 2000 nM. As for `CC(=O)Nc1cccc(N(C[C@H]2CCCN2)C(=O)C(C)Oc2ccccc2Cl)c1` (stereo partly specified), the concentration for a half-maximal effect (EC50) in assay [1] was 200 nM. The same compound registered an Activity in assay [2] of 70%. On to `CC(Oc1cccc(Cl)c1)C(=O)N(Cc1ccccc1Cl)C[C@H]1CCCN1` (stereo partly specified), for which, in assay [1], the midpoint of the response, the EC50, lay at 40 nM. For the same compound, in assay [2], the Activity was 80%. The matching figures for `CC(=O)Nc1ccc(N(C[C@H]2CCCN2)C(=O)C(C)Oc2ccccc2Cl)cc1` (stereo partly specified): 50 nM and 90%. Consider `CCC(Oc1ccccc1)C(=O)N(C[C@H]1CCCN1)c1cccc(OC)c1` (stereo partly specified), for which the concentration for a half-maximal effect (EC50) in assay [1] was greater than 10000 nM. On to `CC(Oc1ccccc1Cl)C(=O)N(Cc1ccc(Cl)cc1)C[C@H]1CCCN1` (stereo partly specified), for which, in assay [1], the EC50 was determined as 60 nM. In addition, the Activity in assay [2] stood at 80%. `Cc1ccccc1CN(C[C@H]1CCCN1)C(=O)C(C)Oc1cccc(Cl)c1` (stereo partly specified) returned an EC50 in assay [1] of 3 nM. In addition, the Activity in assay [2] was 100%. For the same compound, affinity in assay [3] was put at a Ki of 100 nM.

Turning to `Cc1cccc(CN(C[C@H]2CCCN2)C(=O)C(C)Oc2cccc(Cl)c2)c1` (stereo partly specified), in assay [1], the EC50 is 120 nM. Also, the Activity in assay [2] is 20%. Consider `CC(=O)Nc1ccc(N(C[C@H]2CCCN2)C(=O)[C@@H](C)Oc2cccc(Cl)c2)cc1`, for which the response in assay [1] was half-maximal at 1200 nM (EC50). For the same compound, the Activity in assay [2] was found to be 100%. For the same compound, in assay [3], the Ki is no less than 10000 nM. As for `CC(Oc1cccc(Cl)c1)C(=O)N(C[C@H]1CCCN1)c1cccc(Cl)c1` (stereo partly specified), in assay [1], it took 40 nM to reach a half-maximal effect (EC50). The same compound showed an Activity in assay [2] of 110%.

`CC(Oc1ccccc1)C(=O)N(Cc1cccc(Cl)c1)C[C@H]1CCCN1` (stereo partly specified) gave an EC50 in assay [1] of 50 nM. The Activity in assay [2] came out at 80%. `CC(=O)Nc1ccc(N(C[C@H]2CCCN2)C(=O)[C@H](C)Oc2cccc(Cl)c2)cc1` came in with an EC50 in assay [1] of 20 nM. The compound also registered an Activity in assay [2] of 100%. This compound also showed a Ki in assay [3] of 250 nM. With `CC(Oc1ccccc1)C(=O)N(Cc1ccccc1Cl)C[C@H]1CCCN1` (stereo partly specified), the half-maximal effective concentration (EC50) in assay [1] was 150 nM. This compound displayed an Activity in assay [2] of 100%. Turning to `CC(=O)Nc1ccc(N(C[C@H]2CCCN2)C(=O)COc2ccccc2)cc1`, in assay [1], a half-maximal response (EC50) required 2000 nM. In turn, `Cc1cccc(CN(C[C@H]2CCCN2)C(=O)C(C)Oc2ccccc2Cl)c1` (stereo partly specified) yielded a half-maximal effective concentration (EC50) in assay [1] of 90 nM. Also, the Activity in assay [2] came out at 70%.

Compound `CC(Oc1cccc(Cl)c1)C(=O)N(C[C@H]1CCCN1)c1ccccc1Cl` (stereo partly specified) showed an EC50 in assay [1] of 780 nM. The Activity in assay [2] is 70%. On to `CC(=O)Nc1ccc(N(C[C@H]2CCCN2)C(=O)C(C)Oc2ccccc2)cc1` (stereo partly specified), for which it took 330 nM to reach a half-maximal effect in assay [1] (EC50). In the case of `C[C@H](Oc1cccc(Cl)c1)C(=O)N(Cc1ccccc1)C[C@H]1CCCN1`, in assay [1], the EC50 was determined as 4 nM. The Activity in assay [2] turned out to be 90%. Further, in assay [3], the Ki came to 30 nM. In the case of `CC(Oc1ccccc1)C(=O)N(C[C@H]1CCCN1)c1cccc(Cl)c1` (stereo partly specified), the concentration giving a half-maximal response (EC50) in assay [1] was found to be 90 nM. In assay [2], the Activity was found to be 110%. `Cc1ccccc1CN(C[C@H]1CCCN1)C(=O)[C@H](C)Oc1cccc(Cl)c1` returned a 50% effective concentration (EC50) in assay [1] of 2 nM. Also, the Activity in assay [2] was 90%. For the same compound, in assay [3], the inhibitory constant (Ki) turned out to be 30 nM. For `CC(=O)Nc1cccc(N(C[C@H]2CCCN2)C(=O)C(C)Oc2cccc(Cl)c2)c1` (stereo partly specified), the EC50 in assay [1] was found to be 140 nM. The compound further returned an Activity in assay [2] of 60%. In assay [1], `CC(Oc1ccccc1)C(=O)N(C[C@H]1CCCN1)c1ccccc1Cl` (stereo partly specified) displayed a concentration giving a half-maximal response (EC50) of 1260 nM. In assay [2], the Activity came to 80%. With `Cc1ccccc1CN(C[C@H]1CCCN1)C(=O)[C@@H](C)Oc1cccc(Cl)c1`, it took 180 nM to reach a half-maximal effect in assay [1] (EC50). In assay [2], this compound displayed an Activity of 90%. This compound also gave a Ki in assay [3] of 2200 nM. In turn, `CCC(Oc1ccccc1)C(=O)N(C[C@H]1CCCN1)c1cccc(SC)c1` (stereo partly specified) had a half-maximal effective concentration (EC50) in assay [1] greater than 10000 nM. Same read-out and setting: in the case of `COc1c(-c2ccccc2)cccc1N(C[C@H]1CCCN1)C(=O)COc1ccccc1` it was 5000 nM.

`C[C@@H](Oc1cccc(Cl)c1)C(=O)N(Cc1ccccc1)C[C@H]1CCCN1`: in assay [1], the midpoint of the response, the EC50, lay at 1500 nM. The Activity in assay [2] amounted to 100%. The Ki in assay [3] is no less than 10000 nM.

In the case of `CC(Oc1cccc(Cl)c1)C(=O)N(Cc1cccc(Cl)c1)C[C@H]1CCCN1` (stereo partly specified), the concentration for a half-maximal effect (EC50) in assay [1] was 20 nM. Further, in assay [2], the Activity came out at 70%. Turning to `CC(Oc1ccccc1Cl)C(=O)N(Cc1ccccc1Cl)C[C@H]1CCCN1` (stereo partly specified), in assay [1], a half-maximal response (EC50) required 260 nM. In assay [2], this compound gave an Activity of 60%.

(Values after ChEMBL document CHEMBL1144160, “Discovery and optimization of (R)-prolinol-derived agonists of the Growth Hormone Secretagogue receptor (GHSR)” (Bioorg Med Chem Lett, 2008).)
